Publication PMC3953482, “Fha Interaction with Phosphothreonine of TssL Activates Type VI Secretion in Agrobacterium tumefaciens” (PLoS Pathogens, 2014)
Entries after “also recorded” stand apart in the source; their conditions may differ. Non-standard residues stand in square brackets, D forms with d. No end group written: not given here. pT = C[C@@H](OP(=O)(O)O)[C@H](N)C(=O)O

Key:
Fha7-267^WT = experiment: Isothermal titration calorimetry (ITC) of TssL/CHK2 peptides with Fha7-267^WT; format: binding, A. tumefaciens; conditions: 25°C, 50 mM Tris-HCl (pH 8.0), 150 mM NaCl, 200 µM protein in cell, 6 mM peptide in syringe, result in words
Source text: Because FHA domains are well known to bind to pThr residues specifically [33]–[35], we hypothesized that Fha specifically binds Thr 14-phosphorylated TssL to activate type VI secretion. To test this hypothesis, we first performed isothermal titration calorimetry (ITC) analysis with purified Fha proteins and synthetic phosphorylated- and unphosphorylated TssL N-terminal peptides. Because of the instability of full-length Fha protein purified from E. coli (data not shown), we purified truncated Fha proteins with different lengths for the ITC experiments (Figure S6A). […] The binding affinity was ∼3-fold higher (Kd 0.54±0.07 mM) with a longer phosphorylated TssL peptide (DNPSSWQDLPpTVVEITEESR, p-TssL^20 mer) (Figure 6B). […] (Figure 6C, 6E).
Figure 6 Phosphorylated TssL is a direct binding partner of Fha. Isothermal titration calorimetry (ITC) of specific binding between Fha and TssL peptides. […]
ITC analysis was used to determine the binding affinity and stoichiometry between Fha and TssL T-14 peptide with use of the MicroCal iTC200 system (GE Healthcare) and analyzed with ORIGIN software. […] The titration heat was calculated to eliminate the effect of heat generated from titrating the ligand into buffer. […]

Fha7-309^WT = experiment: Isothermal titration calorimetry (ITC) of TssL peptides with Fha7-309^WT; format: binding, A. tumefaciens; conditions: 25°C, 50 mM Tris-HCl (pH 8.0), 150 mM NaCl, 200 µM protein in cell, 6 mM peptide in syringe, result in words
Method: ITC analysis was used to determine the binding affinity and stoichiometry between Fha and TssL T-14 peptide with use of the MicroCal iTC200 system (GE Healthcare) and analyzed with ORIGIN software. Truncated His-tagged Fha^7–267 and Fha^7–309 proteins were overexpressed and purified from E. coli BL21(DE3) as described. The proteins and various synthetic peptides were dissolved in buffer containing 50 mM Tris-HCl (pH 8.0), 150 mM NaCl. Synthetic phosphorylated TssL (DLPpTVVEI, p-TssL^8 mer; DNPSSWQDLPpTVVEITEESR, p-TssL^20 mer), unphosphorylated TssL (DLPTVVEI, TssL^8 mer), and phosphorylated CHK2 (VSpTQEL, p-CHK2^6 mer) peptides, were used to titrate the various Fha^7–267 or Fha^7–309 proteins at 25°C with a total 25 times of injections with 200 µM protein in the sample cell and 6 mM peptide in the injection syringe. The titration heat was calculated to eliminate the effect of heat generated from titrating the ligand into buffer. […]
Supplementary file ppat.1003991.s006.tif: Figure S6 SDS-PAGE analysis of purified Fha proteins and isothermal titration calorimetry (ITC) analysis. […] Five µg of purified Fha proteins (Fha7-267^WT, Fha7-267^R30AS46A, Fha7-309^WT) was analyzed by 12% SDS-PAGE and stained by Coomassie blue to ensure protein purity. […]

[1] = molecular target: Fha7-267^WT (truncated His-tagged Fha with the intact FHA domain) (Agrobacterium tumefaciens C58); experiment: ITC; MicroCal iTC200; 200 µM Fha protein in the sample cell, 6 mM peptide in the injection syringe, 25 injections, 25°C, 50 mM Tris-HCl (pH 8.0), 150 mM NaCl; One Set of Sites model with the N value fixed at 1
[2] = molecular target: Fha7-309^WT (longer version of the truncated Fha protein) (Agrobacterium tumefaciens C58); experiment: as above

Molecule: VSpTQEL [p-CHK2^6 mer, 6 mer phosphorylated CHK2 peptide (VSpTQEL), control, reference compound]
- equilibrium dissociation constant (Kd), binding not detectable (Fha7-267^WT): could not detect the binding affinity; also recorded: Undetectable

Molecule: DLPTVVEI [TssL^8 mer, synthetic unphosphorylated TssL peptide (DLPTVVEI)]
- equilibrium dissociation constant (Kd), binding not detectable (Fha7-267^WT): could not detect the binding affinity; also recorded: Undetectable
- binding affinity, not detectable (Fha7-309^WT): undetectable

Molecule: DLP[pT]VVEI [8 mer phosphorylated TssL peptide (DLPpTVVEI)]
- Kd [1]: 1580 µM
- Kd [2]: 2150 µM

Molecule: DNPSSWQDLP[pT]VVEITEESR [20 mer phosphorylated TssL peptide (…p…)]
- Kd [1]: 540 µM
